Measurements published in patent US20260103760A1, “ANALYTIC METHOD FOR DIAGNOSING OVARIAN CANCER RESISTANT TO PACLITAXEL” (CHA UNIVERSITY INDUSTRY-ACADEMIC COOPERATION FOUNDATION, priority 2022, published 2026).

Tested on: Taxol-resistant ovarian cancer cell line SKOV3/TAX compared to ovarian cancer cell line SKOV3
Experiment: Cell viability of SKOV3 and SKOV3/TAX cultured in medium containing Taxol (cell counting kit-8)
Type: cell-based
Conditions: medium containing 30 μM Taxol, FIG. 1
Experimental: Ovarian cancer cell line SKOV3 (HTB-77™, Sigma-Aldrich, St. Louis, MO, USA) was cultured in a DMEM medium (31800-022, Gibco, Grand Island, NY, USA) containing 5 μM Taxol, 10% FBS and 1% Antibiotic-Antimycotic (15240062, Gibco, Grand Island, NY, USA) at 37° C. in a 5% CO2 incubator for 1 month. The cells were harvested and cultured continuously in a 5% CO2 incubator at 37° C., in a medium containing 10 µM Taxol for 2 months, in a medium containing 20 µM Taxol for 2 months, and in a medium containing 30 μM Taxol for 2 months (total for 7 months), and then the viable cell line was isolated. The isolated cell line was named SKOV3/TAX and the following experiments were performed using as an ovarian cancer cell line resistant to Taxol. In order to compare Taxol resistance, the SKOV3 and SKOV3/TAX cells were cultured at 5,000 cells per well in a 96-well plate in a medium containing Taxol at a concentration of 30 μM per well. Then, cell viabilities were measured at 0, 24, and 48 hours with a cell counting kit-8 (CK04-11, Dojindo, Rockville, MD, USA).

CC(=O)O[C@H]1C(=O)[C@@]2(C)[C@H]([C@H](OC(=O)c3ccccc3)[C@]3(O)C[C@H](OC(=O)[C@H](O)[C@@H](NC(=O)c4ccccc4)c4ccccc4)C(C)=C1C3(C)C)[C@]1(OC(C)=O)CO[C@@H]1C[C@@H]2O [Taxol, paclitaxel]
cell viability of SKOV3/TAX compared to SKOV3 (increase) (24 hours, 5,000 cells per well): approximately 1.67 fold | cell viability of SKOV3/TAX compared to SKOV3 (increase) (48 hours, 5,000 cells per well): approximately 2.40 fold
